The term Kd denotes the free concentration of one partner at which half of the binding sites on the other are occupied at equilibrium, for simple one-to-one binding. A lower Kd goes with tighter binding.

The target in one experiment is T1, βarr2L69C-BIM (Homo sapiens, UniProt P32121, C126S/C141L/C151V/C17S/C243V/C252V/C270S/C409S/C60V/L69C).
T1 construct: gene ARRB2; Cys-less full-length βarr2 with L69C in finger loop, labelled with monobromobimane at C69; E. coli NiCo21(DE3), pET-15b; N-terminal 6xHis-3C removed by 3C protease, GG-AviTag-GGSGGS linker kept
T1 sequence (P32121 whole entry C17S/C60V/L69C/C126S/C141L/C151V/C243V/C252V/C270S/C409S): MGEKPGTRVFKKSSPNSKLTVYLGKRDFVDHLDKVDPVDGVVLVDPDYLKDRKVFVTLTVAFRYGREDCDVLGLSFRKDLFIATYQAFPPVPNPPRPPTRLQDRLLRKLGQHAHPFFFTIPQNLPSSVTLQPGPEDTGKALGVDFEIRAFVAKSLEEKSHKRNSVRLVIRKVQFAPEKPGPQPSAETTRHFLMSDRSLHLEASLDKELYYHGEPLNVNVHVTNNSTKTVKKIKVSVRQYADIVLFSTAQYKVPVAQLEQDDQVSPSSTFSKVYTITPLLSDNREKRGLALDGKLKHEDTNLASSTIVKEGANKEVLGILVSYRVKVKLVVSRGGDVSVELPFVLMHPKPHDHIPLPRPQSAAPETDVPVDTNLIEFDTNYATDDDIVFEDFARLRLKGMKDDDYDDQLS
In words: bimane fluorescence titration, single-site fit. The class given is binding. The source says: bimane fluorescence titration, single-site fit on βarr2L69C-BIM | PIP3 binds βarr2 with higher affinity than PIP2 and induces a conformational change | Like PIP2 and V2Rpp, PIP3 induced a concentration-dependent increase in bimane fluorescence

In experiment [1] the target is PTH type 1 receptor C-terminally fused to monomeric NeonGreen (PTH1R^mNG) (human) (UniProt Q03431).
Sequence of PTH type 1 receptor C-terminally fused to monomeric NeonGreen (PTH1R^mNG) (human) (Q03431 27-593): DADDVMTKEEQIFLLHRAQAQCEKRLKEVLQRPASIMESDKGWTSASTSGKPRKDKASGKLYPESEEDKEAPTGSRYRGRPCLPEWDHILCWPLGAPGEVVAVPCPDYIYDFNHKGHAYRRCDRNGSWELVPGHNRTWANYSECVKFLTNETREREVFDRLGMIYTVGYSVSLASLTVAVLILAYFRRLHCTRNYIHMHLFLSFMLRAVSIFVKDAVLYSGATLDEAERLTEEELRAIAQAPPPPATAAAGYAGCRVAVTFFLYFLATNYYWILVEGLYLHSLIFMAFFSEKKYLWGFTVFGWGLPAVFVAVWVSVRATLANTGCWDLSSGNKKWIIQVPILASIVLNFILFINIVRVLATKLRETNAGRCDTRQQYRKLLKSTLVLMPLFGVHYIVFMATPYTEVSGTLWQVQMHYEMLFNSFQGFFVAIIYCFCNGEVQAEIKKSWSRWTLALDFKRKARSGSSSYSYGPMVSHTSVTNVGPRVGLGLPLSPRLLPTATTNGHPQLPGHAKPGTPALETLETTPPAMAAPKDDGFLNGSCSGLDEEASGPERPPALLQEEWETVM

On to `CCCCCCCC(=O)OC[C@H](COP(=O)(O)O[C@H]1[C@H](O)[C@@H](OP(=O)(O)O)[C@H](OP(=O)(O)O)[C@@H](OP(=O)(O)O)[C@H]1O)OC(=O)CCCCCCC` [diC8-PI(3,4,5)P3], for which, on βarr2L69C-BIM, binding was characterised by a dissociation constant (Kd) of 15.5 ± 2.6 µM.

On to `CCCCCCCC(=O)OC[C@H](COP(=O)(O)O[C@@H]1[C@H](O)[C@H](O)[C@@H](OP(=O)(O)O)[C@H](OP(=O)(O)O)[C@H]1O)OC(=O)CCCCCCC` [di-C8-PI(4,5)P2], for which binding on βarr2L69C-BIM was characterised by a dissociation constant (Kd) of 64.8 ± 16.8 µM.

Turning to “PTH(1-34) labeled in position 13 with tetramethylrhodamine (PTH^TMR) (peptide)”, the average diffusion coefficient (D) of PTH1R^mNG molecules in the presence of PTH^TMR (0.088 µm^2/s in the absence of the ligand), single-molecule tracking in experiment [1] was 0.02 µm^2/s.
